Measurements taken from ChEMBL document CHEMBL4024740, “Isocostunolide inhibited glioma stem cell by suppression proliferation and inducing caspase dependent apoptosis” (Bioorg Med Chem Lett, 2017).
Converted amounts (≈) assume the structure as drawn. The source made the active and inactive calls. The calls are words filed in the database; no cut-off is given here.

What was measured:
GSC3 [1] = assay: Cytotoxicity against human GSC3 cells assessed as cell detachment at 5 ug/ml measured after 8 hrs; assay type: functional, cell-based
GSC18 [2] = assay: Inhibition of colony formation in human GSC18 cells assessed as reduction in numbers of clonal sphere at 5 ug/ml after 10 days by crystal violet staining based assay; assay type: functional, cell-based
[3] = Cytotoxicity against human GSC18 cells after 72 hrs by MTS assay; assay type: functional, cell-based; details: GSC18, 72 h
[4] = Induction of apoptosis in human GSC18 cells assessed as late apoptotic cells at 1 ug/ml after 8 hrs by Annexin V-FITC/propidium iodide staining based flow cytometric method (reference value: 4.25%); assay type: functional
GSC18 [5] = assay: Growth inhibition of human GSC18 cells at 10 ug/ml; assay type: functional, cell-based
[6] = Induction of apoptosis in human GSC18 cells assessed as viable cells at 5 ug/ml after 8 hrs by Annexin V-FITC/propidium iodide staining based flow cytometric method (reference value: 85.5%); assay type: functional; details: GSC18, 8 h, read-out: Activity
[7] = Induction of apoptosis in human GSC3 cells assessed as late apoptotic cells at 2 ug/ml after 8 hrs by Annexin V-FITC/propidium iodide staining based flow cytometric method (reference value: 0.603%); assay type: functional
[8] = Induction of apoptosis in human GSC3 cells assessed as early apoptotic cells at 1 ug/ml after 8 hrs by Annexin V-FITC/propidium iodide staining based flow cytometric method (reference value: 0.186%); assay type: functional
GSC3 [9] = assay: Cytotoxicity against human GSC3 cells assessed as cell shrinkage at 5 ug/ml measured after 8 hrs; assay type: functional, cell-based
[10] = Induction of apoptosis in human GSC3 cells assessed as late apoptotic cells at 5 ug/ml after 8 hrs by Annexin V-FITC/propidium iodide staining based flow cytometric method (reference value: 0.373%); assay type: functional
GSC18 [11] = assay: Cytotoxicity against human GSC18 cells assessed as cell detachment at 5 ug/ml measured after 8 hrs; assay type: functional, cell-based
[12] = Induction of apoptosis in human GSC18 cells assessed as viable cells at 1 ug/ml after 8 hrs by Annexin V-FITC/propidium iodide staining based flow cytometric method (reference value: 85.5%); assay type: functional; details: GSC18, 8 h, read-out: Activity
GSC3 [13] = assay: Cytotoxicity against human GSC3 cells assessed as suppression of DNA synthesis at 5 ug/ml after 8 hrs by BrdU/DAPI staining based immunofluorescence assay; assay type: functional, cell-based
[14] = Cytotoxicity against human GSC3 cells after 72 hrs by MTS assay; assay type: functional, cell-based; details: GSC-3, 72 h
[15] = Induction of apoptosis in human GSC3 cells assessed as viable cells at 2 ug/ml after 8 hrs by Annexin V-FITC/propidium iodide staining based flow cytometric method (reference value: 98.8%); assay type: functional; details: GSC-3, 8 h, read-out: Activity
GSC3 [16] = assay: Induction of apoptosis in human GSC3 cells assessed as increase in cleaved caspase-3 at 5 ug/ml after 8 hrs by DAPI staining based immunofluorescence assay; assay type: functional, cell-based
[17] = Induction of apoptosis in human GSC18 cells assessed as late apoptotic cells at 5 ug/ml after 8 hrs by Annexin V-FITC/propidium iodide staining based flow cytometric method (reference value: 2.54%); assay type: functional
GSC12 = assay: Growth inhibition of human GSC12 cells at 10 ug/ml; assay type: functional, cell-based
[18] = Induction of apoptosis in human GSC18 cells assessed as early apoptotic cells at 5 ug/ml after 8 hrs by Annexin V-FITC/propidium iodide staining based flow cytometric method (reference value: 7.73%); assay type: functional
[19] = Induction of apoptosis in human GSC3 cells assessed as late apoptotic cells at 1 ug/ml after 8 hrs by Annexin V-FITC/propidium iodide staining based flow cytometric method (reference value: 0.603%); assay type: functional
GSC3 [20] = assay: Inhibition of colony formation in human GSC3 cells assessed as reduction in numbers of clonal sphere at 5 ug/ml after 10 days by crystal violet staining based assay; assay type: functional, cell-based
HEK-293T = assay: Cytotoxicity against human 293T cells after 72 hrs by MTS assay; assay type: cell-based
GSC3 [21] = assay: Inhibition of colony formation in human GSC3 cells assessed as clonal sphere damage at 5 ug/ml after 10 days by crystal violet staining based assay; assay type: functional, cell-based
[22] = Induction of apoptosis in human GSC18 cells assessed as early apoptotic cells at 2 ug/ml after 8 hrs by Annexin V-FITC/propidium iodide staining based flow cytometric method (reference value: 7.73%); assay type: functional
[23] = Induction of apoptosis in human GSC3 cells assessed as early apoptotic cells at 5 ug/ml after 8 hrs by Annexin V-FITC/propidium iodide staining based flow cytometric method (reference value: 0.186%); assay type: functional
[24] = Induction of apoptosis in human GSC3 cells assessed as viable cells at 5 ug/ml after 8 hrs by Annexin V-FITC/propidium iodide staining based flow cytometric method (reference value: 98.8%); assay type: functional; details: GSC-3, 8 h, read-out: Activity
GSC18 [25] = assay: Cytotoxicity against human GSC18 cells assessed as cell shrinkage at 5 ug/ml measured after 8 hrs; assay type: functional, cell-based
[26] = Induction of apoptosis in human GSC3 cells assessed as early apoptotic cells at 2 ug/ml after 8 hrs by Annexin V-FITC/propidium iodide staining based flow cytometric method (reference value: 0.186%); assay type: functional
[27] = Induction of apoptosis in human GSC3 cells assessed as viable cells at 1 ug/ml after 8 hrs by Annexin V-FITC/propidium iodide staining based flow cytometric method (reference value: 98.8%); assay type: functional; details: GSC-3, 8 h, read-out: Activity
[28] = Induction of apoptosis in human GSC18 cells assessed as late apoptotic cells at 2 ug/ml after 8 hrs by Annexin V-FITC/propidium iodide staining based flow cytometric method (reference value: 4.25%); assay type: functional
[29] = Induction of apoptosis in human GSC18 cells assessed as late apoptotic cells at 1 ug/ml after 8 hrs by Annexin V-FITC/propidium iodide staining based flow cytometric method (reference value: 2.54%); assay type: functional
[30] = Cytotoxicity against human GSC12 cells after 72 hrs by MTS assay; assay type: functional, cell-based; details: GSC12, 72 h
[31] = Induction of apoptosis in human GSC18 cells assessed as late apoptotic cells at 2 ug/ml after 8 hrs by Annexin V-FITC/propidium iodide staining based flow cytometric method (reference value: 2.54%); assay type: functional
[32] = Induction of apoptosis in human GSC18 cells assessed as early apoptotic cells at 1 ug/ml after 8 hrs by Annexin V-FITC/propidium iodide staining based flow cytometric method (reference value: 7.73%); assay type: functional
[33] = Cytotoxicity against human HAC cells after 72 hrs by MTS assay; assay type: cell-based
GSC18 [34] = assay: Inhibition of colony formation in human GSC18 cells assessed as clonal sphere damage at 5 ug/ml after 10 days by crystal violet staining based assay; assay type: functional, cell-based
GSC3 [35] = assay: Growth inhibition of human GSC3 cells at 10 ug/ml; assay type: functional, cell-based
GSC3 [36] = assay: Cytotoxicity against human GSC3 cells assessed as cell rounding at 5 ug/ml measured after 8 hrs; assay type: functional, cell-based
GSC18 [37] = assay: Cytotoxicity against human GSC18 cells assessed as suppression of DNA synthesis at 5 ug/ml after 8 hrs by BrdU/DAPI staining based immunofluorescence assay; assay type: functional, cell-based
[38] = Induction of apoptosis in human GSC18 cells assessed as late apoptotic cells at 5 ug/ml after 8 hrs by Annexin V-FITC/propidium iodide staining based flow cytometric method (reference value: 4.25%); assay type: functional
[39] = Induction of apoptosis in human GSC3 cells assessed as late apoptotic cells at 2 ug/ml after 8 hrs by Annexin V-FITC/propidium iodide staining based flow cytometric method (reference value: 0.373%); assay type: functional
[40] = Induction of apoptosis in human GSC3 cells assessed as late apoptotic cells at 1 ug/ml after 8 hrs by Annexin V-FITC/propidium iodide staining based flow cytometric method (reference value: 0.373%); assay type: functional
GSC18 [41] = assay: Cytotoxicity against human GSC18 cells assessed as cell rounding at 5 ug/ml measured after 8 hrs; assay type: functional, cell-based
GSC18 [42] = assay: Induction of apoptosis in human GSC18 cells assessed as increase in cleaved caspase-3 at 5 ug/ml after 8 hrs by DAPI staining based immunofluorescence assay; assay type: functional, cell-based
[43] = Induction of apoptosis in human GSC18 cells assessed as viable cells at 2 ug/ml after 8 hrs by Annexin V-FITC/propidium iodide staining based flow cytometric method (reference value: 85.5%); assay type: functional; details: GSC18, 8 h, read-out: Activity
[44] = Induction of apoptosis in human GSC3 cells assessed as late apoptotic cells at 5 ug/ml after 8 hrs by Annexin V-FITC/propidium iodide staining based flow cytometric method (reference value: 0.603%); assay type: functional

For `C=C1C(=O)O[C@@H]2/C=C(\C)CCC/C(C)=C/C[C@@H]12`, which Activity (GSC3 [1]) is on record?
Its Activity is “Active”.

What about the inhibition (GSC18 [2]) of the same molecule?
The inhibition was “Active”.

And the IC50 [3]?
Its IC50 is 1.07 µg/mL (≈ 4.61 µM).

And the Activity [4]?
Its Activity is 17.3%.

And the “growth inhibition (GI)” value (GSC18 [5])?
Its value is “Active”.

What about the viability at 5 µg/mL [6] of the same molecule?
Its viability at 5 µg/mL is 39.6%.

And the Activity [7]?
The Activity was 3.53%.

What about the Activity [8] of the same molecule?
Its Activity is 0.096%.

And the Activity (GSC3 [9])?
Its Activity is “Active”.

And the Activity [10]?
Its Activity is 22.4%.

What about the Activity (GSC18 [11]) of the same molecule?
The Activity was “Active”.

And the viability at 1 µg/mL [12]?
Its viability at 1 µg/mL is 51.2%.

What about the Activity (GSC3 [13]) of the same molecule?
Its Activity is “Active”.

What about the IC50 [14] of the same molecule?
The IC50 was 2.8 µg/mL (≈ 12.1 µM).

And the viability at 2 µg/mL [15]?
Its viability at 2 µg/mL is 91.4%.

And the Activity (GSC3 [16])?
Its Activity is “Active”.

And the Activity [17]?
Its Activity is 35.2%.

And the “growth inhibition (GI)” value (GSC12)?
The value was “Active”.

What about the Activity [18] of the same molecule?
Its Activity is 4.1%.

And the Activity [19]?
Its Activity is 0.942%.

What about the inhibition (GSC3 [20]) of the same molecule?
The inhibition was “Active”.

What about the IC50 (HEK-293T) of the same molecule?
Its IC50 is 7.61 µg/mL (≈ 32.8 µM).

What about the inhibition (GSC3 [21]) of the same molecule?
The inhibition was “Active”.

What about the Activity [22] of the same molecule?
Its Activity is 3.28%.

What about the Activity [23] of the same molecule?
Its Activity is 3.98%.

And the viability at 5 µg/mL [24]?
The viability at 5 µg/mL was 19.2%.

What about the Activity (GSC18 [25]) of the same molecule?
Its Activity is “Active”.

And the Activity [26]?
The Activity was 1.06%.

What about the viability at 1 µg/mL [27] of the same molecule?
The viability at 1 µg/mL was 94.7%.

What about the Activity [28] of the same molecule?
Its Activity is 22.1%.

What about the Activity [29] of the same molecule?
The Activity was 30%.

And the IC50 [30]?
The IC50 was 2.61 µg/mL (≈ 11.2 µM).

And the Activity [31]?
Its Activity is 17.1%.

What about the Activity [32] of the same molecule?
Its Activity is 1.54%.

What about the IC50 [33] of the same molecule?
The IC50 was 7.42 µg/mL (≈ 31.9 µM).

What about the inhibition (GSC18 [34]) of the same molecule?
Its inhibition is “Active”.

What about the “growth inhibition (GI)” value (GSC3 [35]) of the same molecule?
The value was “Active”.

And the Activity (GSC3 [36])?
The Activity was “Active”.

What about the Activity (GSC18 [37]) of the same molecule?
Its Activity is “Active”.

And the Activity [38]?
Its Activity is 21.1%.

And the Activity [39]?
Its Activity is 4%.

What about the Activity [40] of the same molecule?
Its Activity is 4.3%.

And the Activity (GSC18 [41])?
The Activity was “Active”.

What about the Activity (GSC18 [42]) of the same molecule?
The Activity was “Active”.

And the viability at 2 µg/mL [43]?
Its viability at 2 µg/mL is 57.5%.

What about the Activity [44] of the same molecule?
The Activity was 54.3%.
